Among the data in patent US20120040930A1, “TETRACYCLIC TERPENE SERIES COMPOUNDS, METHODS FOR PREPARING SAME, USES THEREOF AS MEDICINES AND PHARMACEUTICAL COMPOUNDS CONTAINING SAME” (priority 2005, published 2012) are IC50 values, retold here.

Structures are written as SMILES. Like-named read-outs stand apart in the source and are kept apart here. A value given as a limit tells only on which side of the number the result lay.

Assay [1] addresses T1, acetylcholinesterase (AChE) isolated from Electrophorus electricus (Electrophorus electricus, UniProt O42275).
T1 construct: AChE isolated from Electrophorus electricus; from tissue
Briefly: biochemical.

For assay [2], the target named is T2, human serum butyrylcholinesterase (BChE) (Homo sapiens, UniProt P06276).
T2 construct: BChE isolated from human serum; from tissue; host or cells: human serum
As to the kind of experiment: biochemical.

[3] abbreviates: AChE isolated from Electrophorus electricus, read-out: AChE IC50.
[4] abbreviates: human serum BChE, read-out: BChE.

T2 sequence (P06276 29-602): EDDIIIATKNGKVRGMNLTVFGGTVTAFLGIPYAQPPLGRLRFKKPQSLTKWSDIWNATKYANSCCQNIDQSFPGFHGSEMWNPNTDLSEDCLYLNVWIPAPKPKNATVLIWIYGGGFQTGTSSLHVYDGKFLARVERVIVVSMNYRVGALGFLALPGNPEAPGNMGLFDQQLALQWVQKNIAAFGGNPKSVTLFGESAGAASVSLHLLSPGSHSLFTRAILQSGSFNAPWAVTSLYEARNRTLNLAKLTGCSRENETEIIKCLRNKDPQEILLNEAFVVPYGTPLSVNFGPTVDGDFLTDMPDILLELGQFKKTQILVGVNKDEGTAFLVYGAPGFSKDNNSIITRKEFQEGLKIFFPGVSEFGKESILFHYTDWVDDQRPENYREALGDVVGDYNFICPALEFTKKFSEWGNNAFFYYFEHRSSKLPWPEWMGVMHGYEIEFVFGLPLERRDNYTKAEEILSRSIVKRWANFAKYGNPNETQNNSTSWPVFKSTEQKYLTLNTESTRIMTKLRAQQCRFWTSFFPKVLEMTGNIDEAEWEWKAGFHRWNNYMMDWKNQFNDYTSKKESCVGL
T1 sequence (O42275 24-633): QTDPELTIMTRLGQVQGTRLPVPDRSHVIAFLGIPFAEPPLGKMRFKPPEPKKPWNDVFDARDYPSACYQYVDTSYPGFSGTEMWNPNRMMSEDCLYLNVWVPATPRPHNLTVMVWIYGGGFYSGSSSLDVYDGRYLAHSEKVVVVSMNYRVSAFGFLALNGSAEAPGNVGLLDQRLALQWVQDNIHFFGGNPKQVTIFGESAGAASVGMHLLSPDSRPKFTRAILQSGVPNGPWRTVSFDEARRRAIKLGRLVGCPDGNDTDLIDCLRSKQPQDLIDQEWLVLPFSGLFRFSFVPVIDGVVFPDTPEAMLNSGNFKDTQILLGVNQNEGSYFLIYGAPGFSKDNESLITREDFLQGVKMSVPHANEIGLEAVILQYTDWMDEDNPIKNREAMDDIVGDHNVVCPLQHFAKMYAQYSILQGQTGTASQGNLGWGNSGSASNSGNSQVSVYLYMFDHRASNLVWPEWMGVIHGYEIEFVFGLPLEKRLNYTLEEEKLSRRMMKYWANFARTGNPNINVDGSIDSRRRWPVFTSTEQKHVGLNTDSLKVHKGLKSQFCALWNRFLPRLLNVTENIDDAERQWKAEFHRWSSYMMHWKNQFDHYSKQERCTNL

On to `C[C@@H]([C@H]1[C@H](O)C[C@@]2(C)[C@@H]3CC[C@@H]4C(=CC[C@@H]5N=C(C6CCCCC6)OC[C@]54C)C[C@H]3C(=O)C[C@]12C)N(C)C` [Compound 8d, (20S)-10(9->1)abeo-4,14α-dimethyl-20-dimethylamino(2′-cyclohexyl-4′,4′-dihydro[3′,1′]oxazin)-5α,9-pregn-1(10)-en-16α-ol-11-one], for which the IC50 in assay [1] (setting [3]) was 0.403 µM; in assay [2] (setting [4]), 0.375 µM.
With `C[C@@H]([C@H]1[C@H](O)C[C@@]2(C)[C@@H]3CC[C@@H]4C5(CC[C@H](N)[C@@]4(C)CO)C[C@@]35[C@@H](O)C[C@]12C)N(C)C` (stereo partly drawn) [Compound 28, (20S)-3-amino-9,19-cyclo-4α-hydroxymethyl-4,14α-dimethyl-20-dimethylamino-5α,9-pregnan-16α,11-diol-11-one], the values for the IC50 in assay [1] (setting [3]) and in assay [2] (setting [4]) were over 1 µM and 2.45 µM, respectively.
For `C[C@@H]([C@H]1[C@H](O)C[C@@]2(C)[C@@H]3CC[C@H]4[C@](C)(CO)[C@@H](N)CC[C@@]45CC35C(=O)C[C@]12C)N(C)C` (stereo partly drawn) [Compound 5, (20S)-3-amino-9,19-cyclo-4α-hydroxymethyl-4,14α-dimethyl-20-dimethylamino-5α,9-pregnan-16α-ol-11-one], in that order: over 5 µM and over 30 µM.
For `C[C@@H]([C@H]1[C@H](O)C[C@@]2(C)[C@@H]3CC[C@@H]4C(=CC[C@H](NC(=O)C(C)(C)C)[C@@]4(C)CO)C[C@H]3C(=O)C[C@]12C)N(C)C` [Compound 7f, (20S)-10(9->1)abeo-4α-hydroxymethyl-4,14α-dimethyl-20-dimethylamino-3 (2,2-dimethylpropionylamino)-5α,9-pregn-1(10)-en-16α-ol-11-one], in that order: 4.83 µM and over 1 µM.
Consider `C[C@@H]([C@H]1[C@H](O)C[C@@]2(C)[C@@H]3CC[C@H]4[C@](C)(CO)[C@@H](NC(=O)c5ccccc5)CC[C@@]45CC35C(=O)C[C@]12C)N(C)C` (stereo partly drawn) [Compound 6b, (20S)-3-benzoylamino-9,19-cyclo-4α-hydroxymethyl-4,14α-dimethyl-20-dimethylamino-5α,9-pregnan-16α-ol-11-one], for which the IC50 was over 10 µM in assay [1] (setting [3]) and 2.21 µM in assay [2] (setting [4]).
Regarding `CCC(C)C1=N[C@H]2CC=C3C[C@H]4C(=O)C[C@]5(C)[C@@H]([C@H](C)N(C)C)[C@H](O)C[C@@]5(C)[C@@H]4CC[C@H]3[C@]2(C)CO1` (mixture of isomers) [Compound 8h, (20S)-10(9->1)abeo-4,14α-dimethyl-20-dimethylamino(2′-(1-methylpropyl)-4′,4′ dihydro[3′,1′]oxazin)-5α,9-pregn-1(10)-en-16α-ol-11-one], the IC50 in assay [1] (setting [3]) came to 0.027 µM; in assay [2] (setting [4]), 1.54 µM.
In the case of `CC(C)[C@H]1N[C@H]2CCC34C[C@]35C(=O)C[C@]3(C)[C@@H]([C@H](C)N(C)C)[C@H](O)C[C@@]3(C)[C@@H]5CC[C@H]4[C@]2(C)CO1` (stereo partly drawn) [Compound 9, (20S)-9,19-cyclo-4,14α-dimethyl-20-dimethylamino(2′β-isopropyl-1′,2′,4′,4′-tetrahydro[3′,1′]oxazin)-5α,9-pregnan-16α-ol-11-one], the IC50 was 2.38 µM in assay [1] (setting [3]) and over 10 µM in assay [2].
In the case of `C[C@@H]([C@H]1[C@H](O)C[C@@]2(C)[C@@H]3CC[C@@H]4C(=CC[C@H](NC(=O)Cc5ccccc5)[C@@]4(C)CO)C[C@H]3C(=O)C[C@]12C)N(C)C` [Compound 7g, (20S)-10(9->1)abeo-4α-hydroxymethyl-4,14α-dimethyl-20-dimethylamino-3 (phenylacetylamino)-5α,9-pregn-1(10)-en-16α-ol-11-one], the figures for the IC50 in assay [1] (setting [3]) and in assay [2] (setting [4]) were over 1 µM and over 10 µM, respectively.
As to `CCC(C)C(=O)N[C@H]1CCC23C[C@]24C(=O)C[C@]2(C)[C@@H]([C@H](C)N(C)C)[C@H](O)C[C@@]2(C)[C@@H]4CC[C@H]3[C@]1(C)CO` (stereo partly drawn) [Compound 6h, (20S)-9,19-cyclo-4α-hydroxymethyl-4,14α-dimethyl-20-dimethylamino-3 (2-methylbutyrylamino)-5α,9-pregnan-16α-ol-11-one], the IC50 in assay [1] (setting [3]) was over 100 µM; in assay [2] (setting [4]) it was 0.121 µM.
For `C[C@@H]([C@H]1[C@H](O)C[C@@]2(C)[C@@H]3CC[C@@H]4C(=CC[C@H](N)[C@@]4(C)CO)C[C@H]3C(=O)C[C@]12C)N(C)C` [Compound 11, (20S)-10(9->1)abeo-3-amino-4α-hydroxymethyl-4,14α-dimethyl-20-dimethylamino-5α,9-pregn-1(10)-en-16α-ol-11-one], in that order: 1.5 µM and over 10 µM.
With `CC(C)C(=O)N[C@H]1CC=C2C[C@H]3C(=O)C[C@]4(C)[C@@H]([C@H](C)N(C)C)[C@H](O)C[C@@]4(C)[C@@H]3CC[C@H]2[C@]1(C)CO` [Compound 3, (20S)-10(9->1)abeo-4α-hydroxymethyl-3-isobutyrylamino-4,14α-dimethyl-20-dimethylamino-5α,9-pregn-1(10)-en-16α-ol-11-one], the IC50 in assay [2] (setting [4]) stood at 7.41 µM.
Turning to `CCC(C)C(=O)N[C@H]1CC=C2C[C@H]3C(=O)C[C@]4(C)[C@@H]([C@H](C)N(C)C)[C@H](O)C[C@@]4(C)[C@@H]3CC[C@H]2[C@]1(C)CO` (mixture of isomers) [Compound 7h, (20S)-10(9->1)abeo-4α-hydroxymethyl-4,14α-dimethyl-20-dimethylamino-3 (2-methylbutyrylamino)-5α,9-pregn-1(10)-en-16α-ol-11-one], the IC50 in assay [1] (AChE IC50) came to 0.12 µM; in assay [2] (setting [4]), 1.93 µM.
Turning to `CCC(CC)C1=N[C@H]2CC=C3C[C@H]4C(=O)C[C@]5(C)[C@@H]([C@H](C)N(C)C)[C@H](O)C[C@@]5(C)[C@@H]4CC[C@H]3[C@]2(C)CO1` [Compound 8i, (20S)-10(9->1)abeo-4,14α-dimethyl-20-dimethylamino(2′-(1-ethylpropyl)-4′,4′-dihydro[3′,1′]oxazin)-5α,9-pregn-1(10)-en-16α-ol-11-one], the IC50 in assay [2] (setting [4]) amounted to 0.38 µM.
On the same count and under the same terms, the same measure for `C[C@@H]([C@H]1[C@H](O)C[C@@]2(C)[C@@H]3CC[C@@H]4C(=CC[C@@H]5N=C(Cc6ccccc6)OC[C@]54C)C[C@H]3C(=O)C[C@]12C)N(C)C` [Compound 8g, (20S)-10(9->1)abeo-4,14α-dimethyl-20-dimethylamino-(2′-(1-benzyl)-4′,4′-dihydro[3′,1′]oxazine)-5α,9-pregn-1(10)-en-16α-ol-11-one]: over 10 µM.
In the case of `CC[C@H](C)C(=O)N[C@H]1CC=C2C[C@H]3C(=O)C[C@]4(C)[C@@H]([C@H](C)N(C)C)[C@H](O)C[C@@]4(C)[C@@H]3CC[C@H]2[C@]1(C)CN` [Compound 70, (20S)-10(9->1)-abeo-20-dimethylamino-3-((S)-2-methylbutyrylamino)-4α-aminomethyl-4β,14α-dimethyl-5α,9β-pregn-1(10)-en-16α-ol-11-one], the IC50 in assay [1] (read-out: AChE IC50) is 0.368 µM.
Regarding `CC(C)C(=O)N[C@H]1CCC23C[C@]24C(=O)C[C@]2(C)[C@@H]([C@H](C)N(C)C)[C@H](OC(=O)C(C)(C)C)C[C@@]2(C)[C@@H]4CC[C@H]3[C@]1(C)CNCc1ccccc1` (stereo partly drawn) [Compound 47, (20S)-3β-isobutyrylamino-20-dimethylamino-9,19-cyclo-4α-benzylaminomethyl-4β,14α-dimethyl-16α-pivalyl-5α,9β-pregnan-11-one], the IC50 in assay [1] (setting [3]) was 20.1 µM.
For the compound `CC[C@H](C)C(=O)N[C@H]1CC=C2C[C@H]3C(=O)C[C@]4(C)[C@@H]([C@H](C)N(C)C)[C@H](O)C[C@@]4(C)[C@@H]3CC[C@H]2[C@]1(C)CNCc1ccccc1` [Compound 69, (20S)-10(9->1)abeo-20-dimethylamino-3β-((S)-2-methylbutyrylamino)-4α-benzylaminomethyl-4β,14α-dimethyl-5α,9β-pregn-1(10)-en-16α-ol-11-one], the IC50 in assay [1] (setting [3]) was over 100 µM.
Still for that read-out and setting: the same measure for `CC(C)C(=O)N[C@H]1CCC23C[C@@]24[C@@H](CC[C@H]3[C@]1(C)CO)[C@]1(C)C[C@@H](O)[C@H]([C@H](C)N(C)C)[C@@]1(C)C[C@@H]4O` (stereo partly drawn) [Compound 34, (20S)-20-dimethylamino-3β-(isobutyrylamino)-9,19-cyclo-4α-hydroxymethyl-4β,14α-dimethyl-5α,9β-pregnan-11β,16α-diol-11-one]: over 100 µM.
Still for that read-out and setting: the same measure for `CC(C)C(=O)N[C@H]1CCC23C[C@]24C(=O)C[C@]2(C)[C@@H]([C@H](C)N(C)C)[C@H](OC(=O)C(C)(C)C)C[C@@]2(C)[C@@H]4CC[C@H]3[C@]1(C)/C=N/C([Si](C)(C)C)[Si](C)(C)C` (stereo partly drawn) [Compound 54, (20S)-3β-isobutyrylamino-20-dimethylamino-9,19-cyclo-4β,14α-dimethyl-4α-(bis-(trimethylsilanyl)methylimino)methyl-16α-pivalyl-5α,9β-pregnan-11-one]: over 100 µM.
As to `CC[C@H](C)C(=O)N[C@H]1CC=C2C[C@H]3C(=O)C[C@]4(C)[C@@H]([C@H](C)N(C)C)[C@H](OC(C)=O)C[C@@]4(C)[C@@H]3CC[C@H]2[C@]1(C)CO` [Compound 65], the IC50 in assay [1] (AChE IC50) stood at 7.94 µM.
Take `CC(C)C(=O)NC1CCC23C[C@]24C(=O)C[C@]2(C)[C@@H]([C@H](C)N(C)C)[C@H](OC(=O)C(C)(C)C)C[C@@]2(C)[C@@H]4CC[C@H]3[C@]1(C)CN` (stereo partly drawn) [Compound 50, (20S)-3β-isobutyrylamino-20-dimethylamino-9,19-cyclo-4α-aminomethyl-4β,14α-dimethyl-16α-pivalyl-5α,9β-pregnan-11-one]: the IC50 in assay [1] (setting [3]) amounted to 1.33 µM.
As for `CC(C)C(=O)N[C@H]1CCC23C[C@]24C(=O)C[C@]2(C)[C@@H]([C@H](C)N(C)C)[C@H](O)C[C@@]2(C)[C@@H]4CC[C@H]3[C@]1(C)/C=N/Cc1ccccc1` (stereo partly drawn) [Compound 45, (20S)-20-dimethylamino-3β-(isobutyrylamino)-9,19-cyclo-4α-benzyliminomethyl-4β,14α-dimethyl-5α,9β-pregnan-16α-ol-11-one], the IC50 in assay [1] (setting [3]) is over 100 µM.
